Data taken from patent US11578055B2, “Triazacyclododecansulfonamide (“TCD”)-based protein secretion inhibitors” (KEZAR LIFE SCIENCES, priority 2018, dated 2023).

What was measured:
[1] = system: PD1 signal sequence plus 10 amino acids fused to Gaussia Luciferase (PD1-ss+10aa/Gaussia Luciferase); assay: Dox Induced PD1-ss-Gluc Assay; format: cell-based; conditions: 24 hr, Dox inducible, 293FRT/TO cells; read-out: 24 hr Dox Inducible PD1ssGluc 293FRT/TO: Mean IC50
Method in brief: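 Stable Flp-In 293 T-REx line expressing the fusion under tetracycline-inducible control, plated the day before assay. Compound dilutions added with doxycycline and incubated at 37 °C, 5% CO2; unspecified stereocentres mean data refer to stereoisomer mixtures.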

[2] = system: full length TNFα (amino acids 1-233) fused to Gaussia Luciferase; assay: Dox Induced TNFα-FL-Gluc Assay; format: cell-based; conditions: 24 hr, Dox inducible, 293FRT/TO cells; read-out: 24 hr Dox Inducible TNFaFLGluc 293FRT/TO: Mean IC50
Method in brief: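 Stable Flp-In 293 T-REx line expressing doxycycline-inducible full-length TNFα fused to Gaussia luciferase; cells plated the day before, then treated with compound dilutions in doxycycline-containing medium at 37° C, 5% CO2. Unspecified stereocentres mean stereoisomer mixtures were tested.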

[3] = system: full length IL-2 (amino acids 1-153) fused to Gaussia Luciferase; assay: Dox Induced IL2-FL-Gluc Assay; format: cell-based; conditions: 24 hr, Dox inducible, 293FRT/TO cells; read-out: 24 hr Dox Inducible IL2FLGluc 293FRT/TO: Mean IC50
Method in brief: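 Flp-In 293 T-REx stable line expressing full-length IL-2 (aa 1-153) with C-terminal Gaussia luciferase fusion under doxycycline-inducible control. Cells plated the day before; compound dilutions added in DMSO/media containing doxycycline, incubated at 37° C, 5% CO2.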

[4] = system: HER3 signal sequence plus 4 amino acids fused to Gaussia Luciferase (HER3-ss+4aa/Gaussia Luciferase); assay: Dox Induced HER3-ss-Gluc Assay; format: cell-based; conditions: 24 hr, doxycycline induced, Flp-In 293 T-REx cells; read-out: 24 hr Dox Inducible Her3(ss + 4) Gluc 293FRT/TO: Mean 1050
Method in brief: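 Stable Flp-In 293 T-REx line expressing HER3 signal sequence+4aa/Gaussia luciferase under doxycycline-inducible control. Cells plated the day before; compound dilutions added in doxycycline-containing medium and incubated at 37° C, 5% CO2.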

[5] = system: multiple myeloma cell line NCl-H929; assay: H929 Cell Viability Assay; format: cell-based, human; conditions: Homo sapiens, NCI-H929, 48 h, H929, Celltiter-Glo
Method in brief: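 NCI-H929 myeloma cells in RPMI 1640 with 10% FBS were treated with compound dilutions for 48 h at 37 °C, and viability was then read by CellTiter-Glo luminescence. Compounds drawn without stereochemistry were tested as stereoisomer mixtures.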

[6] = system: multiple myeloma cell line U266B1; assay: U266 Cell Viability Assay; format: cell-based, human; conditions: Homo sapiens, U-266; 48 hr, U266, Celltiter-Glo
Method in brief: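 U266B1 myeloma cells in RPMI 1640 with 10% FBS were treated with compound dilutions for 48 h at 37° C, 5% CO2. Viability was read as CellTiter-Glo luminescence. Data for structures drawn without stereochemistry refer to stereoisomer mixtures.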

[7] = In Vitro Microsome Stability Assay (human); format: in vitro ADME; conditions: human liver microsomes, 30 min w/ NADPH
Method in brief: (§1)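 Species liver microsomes in potassium phosphate buffer were preincubated at 37 °C for 3–5 min with test compound (added from 0.25 mM DMSO stock), then started with NADPH. Samples at 0 and 30 min were quenched with acetonitrile containing internal standard and analysed by LC-MS/MS; % remaining at 30 min used analyte/IS AUC ratios relative to t=0.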

[8] = In Vitro Microsome Stability Assay (mouse); format: in vitro ADME; conditions: mouse liver microsomes, 30 min w/ NADPH
Method in brief: as §1

[9] = In Vitro Microsome Stability Assay (rat); format: in vitro ADME; conditions: rat liver microsomes, 30 min w/ NADPH
Method in brief: as §1

[10] = In Vitro Microsome Stability Assay (monkey); format: in vitro ADME; conditions: monkey liver microsomes, 30 min w/ NADPH
Method in brief: as §1

IC50 [1] | IC50 [2] | IC50 [3] | IC50 [4] | EC50 [5] | EC50 [6] | Liver Microsome Stability-% Left after 30 min w/ NADPH (%) Human [7] | Liver Microsome Stability-% Left after 30 min w/ NADPH (%) Mouse [8] | Liver Microsome Stability-% Left after 30 min w/ NADPH (%) Rat [9] | Liver Microsome Stability-% Left after 30 min w/ NADPH (%) Monkey [10] | SMILES
15.6 nM | 239 nM | 27.3 nM | 31.4 nM | 672 nM | > 25000 nM | 4.78% | 19.2% | 28.5% | 16.3% | C[C@H]1CN(S(=O)(=O)c2ccc(N(C)C)cc2)CCCN(CCC2CCCC2)CCCN(S(=O)(=O)N2CCc3cc(Cl)ccc3C2)C1 [A120, 4-{[(3S)-5-[(6-chloro-1,2,3,4-tetrahydroisoquinolin-2-yl)sulfonyl]-9-(2-cyclopentylethyl)-3-methyl-1,5,9-triazacyclododecan-1-yl]sulfonyl}-N,N-dimethylaniline]
80.8 nM | 1420 nM | 162 nM | 132 nM | > 25000 nM | > 25000 nM | 8.0% | 23.7% | 28.3% | 25.5% | COc1ccc(N2CCN(S(=O)(=O)N3CCCN(CC4CCCCC4)CCCN(S(=O)(=O)c4ccc(N(C)C)cc4)C[C@H](C)C3)CC2)cc1 [A199, 4-{[(3S)-9-(cyclohexylmethyl)-5-{[4-(4-methoxyphenyl)piperazin-1-yl]sulfonyl}-3-methyl-1,5,9-triazacyclododecan-1-yl]sulfonyl}-N,N-dimethylaniline]
607 nM | > 25000 nM | 802 nM | 913 nM | > 25000 nM | > 25000 nM | 18.9% | 1.01% | 1.25% | 1.91% | C[C@H]1CN(S(=O)(=O)c2ccc(N(C)C)cc2)CCCN(Cc2ccon2)CCCN(S(=O)(=O)N2CCc3cc(Cl)ccc3C2)C1 [A124, 4-{[(3S)-5-[(6-chloro-1,2,3,4-tetrahydroisoquinolin-2-yl)sulfonyl]-3-methyl-9-[(1,2-oxazol-3-yl)methyl]-1,5,9-triazacyclododecan-1-yl]sulfonyl}-N,N-dimethylaniline]
38.9 nM | 714 nM | 99.3 nM | 88 nM | 1560 nM | > 25000 nM | 27% | 4.48% | 27.8% | 12.4% | C[C@H]1CN(S(=O)(=O)c2ccc3c(ccn3C)c2)CCCN(CC2CCCCC2)CCCN(S(=O)(=O)N2CCc3cc(Cl)ccc3C2)C1 [A188, 6-chloro-2-{[(3S)-9-(cyclohexylmethyl)-3-methyl-5-[(1-methyl-1 H-indol-5-yl)sulfonyl]-1,5,9-triazacyclododecan-1-yl]sulfonyl}-1,2,3,4-tetrahydroisoquinoline]
17.4 nM | 395 nM | 39 nM | 38.2 nM | 657 nM | > 25000 nM | 54.7% | 84.3% | 80.5% | 65% | C[C@H]1CN(S(=O)(=O)c2ccc(N(C)C)cc2)CCCN(CC2CCCCC2)CCCN(S(=O)(=O)N2CCN(c3ccc(F)cc3Cl)CC2)C1 [A206, 4-{[(3S)-5-{[4-(2-chloro-4-fluorophenyl)piperazin-1-yl]sulfonyl}-9-(cyclohexylmethyl)-3-methyl-1,5,9-triazacyclododecan-1-yl]sulfonyl}-N,N-dimethylaniline]
31.3 nM | 519 nM | 80.5 nM | 57.8 nM | 1650 nM | > 25000 nM | 1.77% | 8.31% | 10.1% | 1.77% | CN(C)c1ccc(S(=O)(=O)N2CCCN(CC3CCCCC3)CCCN(S(=O)(=O)N3CCc4cc(Cl)ccc4C3)C[C@H]3CC[C@@H]32)cc1 [B22, 4-{[(1S,12R)-10-[(6-chloro-1,2,3,4-tetrahydroisoquinolin-2-yl]sulfonyl]-6-(cyclohexylmethyl)-2,6,10-triazabicyclo[10.2.0]tetradecan-2-yl]sulfonyl}-N,N-dimethylaniline]
43.2 nM | 573 nM | 85.4 nM | 85.5 nM | 1470 nM | > 25000 nM | 21.8% | 30.1% | 37.8% | 10.0% | C[C@H]1CN(S(=O)(=O)c2ccc(N(C)C)cc2)CCCN(CC2CCC(F)(F)CC2)CCCN(S(=O)(=O)N2CCc3cc(Cl)ccc3C2)C1 [A185, 4-{[(3S)-5-[(6-chloro-1,2,3,4-tetrahydroisoquinolin-2-yl)sulfonyl]-9-[(4,4-difluorocyclohexyl)methyl]-3-methyl-1,5,9-triazacyclododecan-1-yl]sulfonyl}-N,N-dimethylaniline]
58.4 nM | 982 nM | 158 nM | 134 nM | 1490 nM | > 25000 nM | 48.4% | 62.6% | 58.3% | 49.7% | C[C@H]1CN(S(=O)(=O)c2ccc(N(C)C)cc2)CCCN(CC2CCC(F)CC2)CCCN(S(=O)(=O)N2CCc3cc(Cl)ccc3C2)C1 (stereo partly drawn) [A204, 4-{[(3S)-5-[(6-chloro-1,2,3,4-tetrahydroisoquinolin-2-yl)sulfonyl]-9-[(4-fluorocyclohexyl)methyl]-3-methyl-1,5,9-triazacyclododecan-1-yl]sulfonyl}-N,N-dimethylaniline]
